Active and inactive are the calls of the source. No cut-off for these calls is given here. A value given as a limit tells only on which side of the number the result lay.

Assay [1] concerns the target Macrophage colony-stimulating factor 1 receptor (Homo sapiens, UniProt P07333). Put plainly: Inhibition of CSF-1R (unknown origin).
For assay [2], the target named is T1, Macrophage colony-stimulating factor 1 receptor (Mus musculus) (UniProt P09581).
T1 sequence (whole entry): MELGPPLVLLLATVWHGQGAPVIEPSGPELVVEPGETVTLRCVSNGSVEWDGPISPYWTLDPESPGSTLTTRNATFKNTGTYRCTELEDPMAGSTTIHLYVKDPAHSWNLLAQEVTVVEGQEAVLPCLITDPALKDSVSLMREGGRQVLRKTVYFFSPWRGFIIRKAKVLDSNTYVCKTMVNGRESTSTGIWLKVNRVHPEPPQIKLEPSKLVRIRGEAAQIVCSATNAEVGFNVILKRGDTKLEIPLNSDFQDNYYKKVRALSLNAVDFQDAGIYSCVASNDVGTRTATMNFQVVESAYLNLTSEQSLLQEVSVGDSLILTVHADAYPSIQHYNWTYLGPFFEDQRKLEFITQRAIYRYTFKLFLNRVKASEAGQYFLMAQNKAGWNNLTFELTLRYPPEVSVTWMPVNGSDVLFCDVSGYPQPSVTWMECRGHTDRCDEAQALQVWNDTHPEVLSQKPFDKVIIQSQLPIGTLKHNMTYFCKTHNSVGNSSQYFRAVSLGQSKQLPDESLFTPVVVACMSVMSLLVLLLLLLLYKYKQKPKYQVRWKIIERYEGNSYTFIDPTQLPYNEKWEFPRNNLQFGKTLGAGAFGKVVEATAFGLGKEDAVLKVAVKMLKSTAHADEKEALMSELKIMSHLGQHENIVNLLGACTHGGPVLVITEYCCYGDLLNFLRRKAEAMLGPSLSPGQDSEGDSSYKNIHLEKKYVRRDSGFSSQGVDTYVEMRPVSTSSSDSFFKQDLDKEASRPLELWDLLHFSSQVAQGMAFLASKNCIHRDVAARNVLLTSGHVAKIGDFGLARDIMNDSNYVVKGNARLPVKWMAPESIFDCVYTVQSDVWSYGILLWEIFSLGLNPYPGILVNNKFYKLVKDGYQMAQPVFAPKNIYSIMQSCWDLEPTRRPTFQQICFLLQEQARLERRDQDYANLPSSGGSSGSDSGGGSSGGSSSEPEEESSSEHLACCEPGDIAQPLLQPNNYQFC
Put plainly: Inhibition of CSF-1R signaling pathway activation in female C57BL/6 mouse BMDM cells assessed as reduction in CSF-1R phosphorylation at 100 nM preincubated with compounds for 4 hrs followed by M-CSF stimulation and measured after 30 mins by Western blot analysis. The settings on record: time 4.5 hrs. The class given is cell-based. For orientation: In western blotting, separated proteins are transferred to a membrane and probed.

Assay [3] addresses T1, Macrophage colony-stimulating factor 1 receptor (Mus musculus). The assay can be described thus: Inhibition of CSF-1R signaling pathway activation in female C57BL/6 mouse BMDM cells assessed as reduction in CSF-1R phosphorylation at Tyr723 residue at 100 nM preincubated with compounds for 4 hrs followed by M-CSF stimulation and measured after 30 mins by Western blot analysis. Particulars: time 4.5 hrs. The class given is cell-based.

Assay [4] shares this target. Put plainly: Inhibition of CSF-1R signaling pathway activation in female C57BL/6 mouse BMDM cells assessed as reduction in AKT phosphorylation at Ser473 residue at 100 nM preincubated with compounds for 4 hrs followed by M-CSF stimulation and measured after 30 mins by Western blot analysis. Format: cell-based. The settings on record: time 4.5 hrs.
The subject of assay [5] is MC-38. The assay can be described thus: Induction of apoptosis in mouse MC38 cells cocultured with condition medium of M2 macrophages assessed as late apoptotic cells at 100 nM by Annexin V/PI staining based flow cytometric analysis (reference value: 1.66 %). The class given is functional.
Assay [6] concerns MC-38. The assay can be described thus: Induction of apoptosis in mouse MC38 cells cocultured with condition medium of M2 macrophages assessed as early apoptotic cells at 100 nM by Annexin V/PI staining based flow cytometric analysis (reference value: 3.16 %). Format: functional. For orientation: Flow cytometry measures light scatter and fluorescence of single cells or particles in a stream.

The subject of assay [7] is MC-38. The assay can be described thus: Induction of apoptosis in mouse MC38 cells assessed as late apoptotic cells at 100 nM by Annexin V/PI staining based flow cytometric analysis (reference value: 0.85 %). The class given is functional.
Assay [8] relates to MC-38. The assay can be described thus: Induction of apoptosis in mouse MC38 cells assessed as early apoptotic cells at 100 nM by Annexin V/PI staining based flow cytometric analysis (reference value: 1.91 %). Format: functional.

Macrophage colony-stimulating factor 1 receptor, sequence (P07333 whole entry): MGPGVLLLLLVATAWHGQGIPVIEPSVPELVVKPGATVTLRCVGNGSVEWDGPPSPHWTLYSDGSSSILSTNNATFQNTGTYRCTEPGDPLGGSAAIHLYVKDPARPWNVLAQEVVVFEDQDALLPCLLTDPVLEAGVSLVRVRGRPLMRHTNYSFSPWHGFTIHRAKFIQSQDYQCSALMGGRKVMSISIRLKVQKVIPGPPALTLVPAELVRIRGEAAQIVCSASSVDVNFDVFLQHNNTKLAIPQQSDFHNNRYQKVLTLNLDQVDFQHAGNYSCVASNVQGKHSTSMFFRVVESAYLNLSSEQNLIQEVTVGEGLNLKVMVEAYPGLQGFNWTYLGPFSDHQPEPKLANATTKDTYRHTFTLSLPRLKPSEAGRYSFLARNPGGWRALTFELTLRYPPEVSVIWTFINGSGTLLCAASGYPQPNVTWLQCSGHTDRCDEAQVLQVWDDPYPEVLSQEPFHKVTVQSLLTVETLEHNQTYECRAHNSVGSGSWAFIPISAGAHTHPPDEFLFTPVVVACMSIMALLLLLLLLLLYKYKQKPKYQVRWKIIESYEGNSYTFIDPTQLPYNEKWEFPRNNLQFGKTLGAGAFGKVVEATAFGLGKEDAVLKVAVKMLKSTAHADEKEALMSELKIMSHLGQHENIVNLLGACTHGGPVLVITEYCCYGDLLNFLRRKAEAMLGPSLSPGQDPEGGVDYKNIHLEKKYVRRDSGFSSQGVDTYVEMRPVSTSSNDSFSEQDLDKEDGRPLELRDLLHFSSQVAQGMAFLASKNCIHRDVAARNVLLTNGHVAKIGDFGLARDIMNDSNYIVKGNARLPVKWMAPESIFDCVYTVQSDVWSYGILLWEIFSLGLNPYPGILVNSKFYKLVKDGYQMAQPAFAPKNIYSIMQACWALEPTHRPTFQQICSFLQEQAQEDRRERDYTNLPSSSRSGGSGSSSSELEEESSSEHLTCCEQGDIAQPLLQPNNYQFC

The term IC50 denotes the midpoint of a concentration-inhibition curve. The compound `Cc1nc(NC(=O)Nc2ccc(F)cc2)ccc1Oc1c[nH]c2ncc(Cl)cc12` displayed an IC50 in assay [1] of 85.6 nM.

For `O[C@@H]1CCCC[C@H]1Nc1nc2ccc(Oc3c[nH]c4ncc(Cl)cc34)cc2s1`, the midpoint of inhibition in assay [1], the IC50, lay at 25.8 nM. Moreover, the inhibition entry in assay [2] was “Active; Weak Inhibitory Effect Observed”.

In assay [1], `COc1cc(NC(=O)Nc2ccc(Oc3c[nH]c4ncc(Cl)cc34)c(C)n2)ccc1C(F)(F)F` returned an IC50 of 131 nM.

For `Cc1nc(NC(=O)Nc2ccc(C(F)(F)F)nc2)ccc1Oc1c[nH]c2ncc(Cl)cc12`, 152 nM corresponded to half-maximal inhibition in assay [1] (IC50).

The compound `FC(F)(F)c1ccc(Nc2nc3ccc(Oc4c[nH]c5ncc(Cl)cc45)cc3s2)cc1` displayed a half-inhibitory concentration (IC50) in assay [1] of 56.5 nM.

`O=C(Nc1ccc(Oc2c[nH]c3ncc(Cl)cc23)cc1)N[C@@H]1CCCC[C@H]1O`: the IC50 in assay [1] came to 43.5 nM.

In assay [1], `Cc1nc(NC(=O)Nc2ccc(C(C)(C)C)c(Cl)c2)ccc1Oc1c[nH]c2ncc(Cl)cc12` displayed an IC50 of more than 1000 nM.

Turning to `O[C@@H]1CCCC[C@H]1Nc1nc2ccc(Oc3c[nH]c4ncc(F)cc34)cc2s1`, in assay [1], the IC50 was found to be 30.6 nM. Besides, the inhibition result in assay [2] was “Active; Weak Inhibitory Effect Observed”.

`Cc1nc(NC(=O)NCc2ccc(C(F)(F)F)nc2)ccc1Oc1c[nH]c2ncc(Cl)cc12` came in with an IC50 in assay [1] of 406 nM.

As for `Cc1nc(NC(=O)Nc2cc(C(C)(C)C)no2)ccc1Oc1c[nH]c2ncc(Cl)cc12`, the half-maximal inhibitory concentration (IC50) in assay [1] is more than 1000 nM.

As for `O[C@@H]1CCCC[C@H]1Nc1nc2ccc(Oc3c[nH]c4nccc(F)c34)cc2s1`, the concentration for half-maximal inhibition (IC50) in assay [1] turned out to be 41.4 nM.

For the compound `OC[C@H](Nc1nc2ccc(Oc3c[nH]c4ncc(Cl)cc34)cc2s1)C1CCCCC1`, the IC50 in assay [1] was more than 1000 nM.

As for `COc1cc(NC(=O)Nc2ccc(Oc3c[nH]c4ncc(Cl)cc34)c(C)n2)cc(OC)c1OC`, the inhibition result in assay [3] and in assay [4] was “Active; Minimal Effect Observed” throughout. The compound further gave an IC50 in assay [1] of 23.8 nM.

Turning to `FC(F)(F)c1ccc(CNc2ccc(Cc3c[nH]c4ncc(Cl)cc34)cn2)cn1` [PEXIDARTINIB], the Activity with MC-38 [5] is reported as 2.25%; in the assay with MC-38 [6], 8.49%; in the assay on MC-38 [7], 0.83%; in the assay on MC-38 [8], 1.8%.

The compound `Cc1nc(NC(=O)Nc2ccc(N3CCN(C)CC3)cc2)ccc1Oc1c[nH]c2ncc(Cl)cc12` returned an IC50 in assay [1] of 593 nM.

As to `O[C@@H]1CCCC[C@H]1Nc1nc2ccc(Cc3c[nH]c4ncc(Cl)cc34)cc2s1`, the IC50 in assay [1] amounted to 49.4 nM. For the same compound, in assay [2], the inhibition result was “Active; Weak Inhibitory Effect Observed”.

`Cc1nc(NC(=O)Nc2cccc(C(F)(F)F)c2)ccc1Oc1c[nH]c2ncc(Cl)cc12`: in assay [1], the IC50 was 372 nM.

`Cc1nc(NC(=O)Nc2cccc(Cl)c2)ccc1Oc1c[nH]c2ncc(Cl)cc12`: the inhibition result in assay [3] and in assay [4] was “Active; Minimal Effect Observed” each time. In assay [1], inhibition was half-maximal at 34.6 nM (IC50).

On to `Cc1nc(NC(=O)Nc2ccc(C(F)(F)F)cc2)ccc1Oc1c[nH]c2ncc(Cl)cc12`, for which the IC50 in assay [1] stood at 48.9 nM.

The record behind these values is ChEMBL document CHEMBL6103622 (J Med Chem, 2025).
